In ChEMBL document CHEMBL5608197, “Optimization of pyrazolopyridine 4-carboxamides with potent antimalarial activity for which resistance is associated with the P. falciparum transporter ABCI3” (Eur J Med Chem, 2024):
pEC50: −log10 of the molar value. Calls of active or inactive are those of the source. No cut-off for these calls is given here.

Assays:
[1] = Intrinsic clearance in rat hepatocytes at 1 uM measured per million cells for 90 mins by LC-MS/MS analysis; format: ADME, cell-based, Hepatocyte; conditions: read-out: CLH
[2] = Cytotoxicity against human HepG2 cells assessed as inhibition of cell growth incubated for 48 hrs by CellTiter-Glo luminescence assay; format: toxicity, cell-based
[3] = Lipophilicity, elogD of the compound in 1-Octanol/PBS at pH 7.4 at 7.5 uM incubated for 2 hrs by miniaturized shake flask method; format: physicochemical
[4] = Intrinsic clearance in human liver microsomes at 1 uM measured for 60 mins by LC-MS/MS analysis; format: ADME, Microsome; conditions: read-out: CLH
[5] = Efflux ratio of permeability across basolateral to apical side over apical to basolateral side in human Caco-2 cells at pH 7.4; format: ADME, cell-based; conditions: Caco-2, pH 7.4
[6] = molecular target: Voltage-gated inwardly rectifying potassium channel KCNH2 (Homo sapiens, UniProt Q12809); assay: Inhibition of hERG expressed in CHO cells by patch clamp method; format: toxicity, cell-based
[7] = molecular target: T1, CYP1A2 (Homo sapiens, UniProt P05177); assay: Inhibition of CYP1A2 (unknown origin) at 1 uM relative to control; format: ADME
T1 sequence (P05177 whole entry): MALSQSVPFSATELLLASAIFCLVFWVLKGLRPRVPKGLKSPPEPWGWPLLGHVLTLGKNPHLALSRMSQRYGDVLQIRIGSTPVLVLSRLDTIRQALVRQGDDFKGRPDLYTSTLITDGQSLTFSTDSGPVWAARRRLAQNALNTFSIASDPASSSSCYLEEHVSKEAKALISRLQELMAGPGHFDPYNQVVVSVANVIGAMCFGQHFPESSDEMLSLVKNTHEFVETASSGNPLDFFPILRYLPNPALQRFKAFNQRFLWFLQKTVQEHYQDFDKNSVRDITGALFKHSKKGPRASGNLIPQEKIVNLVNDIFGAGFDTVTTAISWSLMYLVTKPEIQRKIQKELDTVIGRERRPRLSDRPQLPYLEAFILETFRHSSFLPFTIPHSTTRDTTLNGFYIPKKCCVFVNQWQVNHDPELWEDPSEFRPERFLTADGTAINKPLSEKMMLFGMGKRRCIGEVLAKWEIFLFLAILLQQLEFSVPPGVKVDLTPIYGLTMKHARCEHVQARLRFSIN

[8] = molecular target: CYP2C19 (Homo sapiens, UniProt P33261); assay: Inhibition of CYP2C19 (unknown origin) at 10 uM relative to control; format: ADME
[9] = molecular target: T2, CYP2C9 (Homo sapiens, UniProt P11712); assay: Inhibition of CYP2C9 (unknown origin) at 1 uM relative to control; format: ADME
[10] = molecular target: T2, CYP2C9; assay: Inhibition of CYP2C9 (unknown origin) at 10 uM relative to control; format: ADME
[11] = molecular target: T3, CYP3A4 (Homo sapiens, UniProt P08684); assay: Inhibition of CYP3A4 (unknown origin) at 1 uM relative to control; format: ADME
[12] = molecular target: T3, CYP3A4; assay: Inhibition of CYP3A4 (unknown origin) at 10 uM relative to control; format: ADME
[13] = tested on: Plasmodium falciparum; assay: Antimalarial activity against asexual stage of Plasmodium falciparum 3D7 infected in erythrocytes assessed as parasite killing at 10XEC50 incubated for 48 hrs with compound renewal for every 24 hrs followed by drug removal and incubation for 48 hrs with CFDA-SE labelled fresh erythrocytes by Hoechst 33342 staining based two-color flow cytometry; format: functional, organism-based; conditions: Erythrocyte
[14] = tested on: Plasmodium falciparum; assay: Antiplasmodial activity against Plasmodium falciparum Dd2-B2 assessed as inhibition of parasite growth incubated for 72 hrs by flow cytometry; format: functional, organism-based
[15] = tested on: Plasmodium falciparum; assay: Antiplasmodial activity against drug-resistant Plasmodium falciparum Dd2-B2 in 2x10^5 bulk culture selection assessed as concentration required to complete parasite killing measured on day 5 under initial selection drug pressure concentration of 3XEC50 by Minimum inoculum of resistance analysis; format: functional; conditions: time 5 day
[16] = tested on: Plasmodium falciparum; assay: Antiplasmodial activity against drug-resistant Plasmodium falciparum Dd2-B2 in 2x10^7 bulk culture selection assessed as concentration required to complete parasite killing measured on day 2 under initial selection drug pressure concentration of 3XEC50 by Minimum inoculum of resistance analysis; format: functional; conditions: time 2 day
[17] = tested on: Plasmodium falciparum; assay: (§1) Resistance ratio of EC50 for antiplasmodial activity against drug-resistant recrudescent Plasmodium falciparum Dd2-B2 in 2x10^5 to 2x10^6 bulk culture selection measured on day 15 under initial selection drug pressure concentration of 3XEC50 to EC50 for antiplasmodial activity against Plasmodium flaciparum Dd2-B2 measured after 72 hrs; format: functional
[18] = tested on: Plasmodium falciparum; assay: as §1, with “in 2x10^7” for “in 2x10^5 to 2x10^6”, “flaciparum Dd2” for “flaciparum Dd2-B2”; format: functional
[19] = tested on: Plasmodium falciparum; assay: as §1, with “of EC90” for “of EC50”, “to EC90” for “to EC50”, “flaciparum Dd2” for “flaciparum Dd2-B2”; format: functional
[20] = tested on: Plasmodium falciparum; assay: Antiplasmodial activity against drug-resistant Plasmodium falciparum Dd2-B2 bulk cultures assessed as minimum inoculum of resistance measured under initial selection drug pressure concentration of 3XEC50 by MIR analysis; format: functional
[21] = tested on: Plasmodium falciparum; assay: Antiplasmodial activity against drug-resistant recrudescent Plasmodium falciparum Dd2-B2 in 2x10^7 bulk culture selection assessed as inhibition of parasite growth incubated for 72 hrs by flow cytometry; format: functional, organism-based
[22] = tested on: Plasmodium falciparum; assay: Antiplasmodial activity against ring stage of Plasmodium falciparum 3D7 expressing ABCI3-HAreg assessed as inhibition of parasite proliferation incubated for 72 hrs in presence of ABCI3 inhibitor, GlcN by SYBR dye based flow cytometry; format: functional, organism-based; conditions: 3D7, 72 h
[23] = Ratio of EC50 for antiplasmodial activity against ring stage of Plasmodium falciparum 3D7 expressing ABCI3-HAreg in absence of ABCI3 inhibitor, GlcN to EC50 for antiplasmodial activity against ring stage of Plasmodium falciparum 3D7 expressing ABCI3-HAreg in presence of ABCI3 inhibitor, GlcN; format: functional
[24] = tested on: Plasmodium falciparum; assay: Antiplasmodial activity against Plasmodium falciparum Dd2 infected in erythrocytes assessed as inhibition of parasite growth incubated for 72 hrs by [3H]hypoxanthine incorporation based microbeta counting analysis; format: functional, organism-based; conditions: Dd2, Erythrocyte
[25] = tested on: Plasmodium falciparum; assay: Antiplasmodial activity against multidrug-resistant Plasmodium falciparum Dd2 harboring CARL-I1139K mutant infected in erythrocytes assessed as inhibition of parasite growth incubated for 72 hrs by [3H]hypoxanthine incorporation based microbeta counting analysis; format: functional, organism-based; conditions: Dd2, Erythrocyte
[26] = tested on: Plasmodium falciparum; assay: Antiplasmodial activity against multidrig-resistant Plasmodium falciparum Dd2 harboring eEF2Y-I86N mutant infected in erythrocytes assessed as inhibition of parasite growth incubated for 72 hrs by [3H]hypoxanthine incorporation based microbeta counting analysis; format: functional, organism-based; conditions: Dd2, Erythrocyte
[27] = tested on: Plasmodium falciparum; assay: Antiplasmodial activity against multidrug-resistant Plasmodium falciparum Dd2 harboring PI4K-S743F mutant infected in erythrocytes assessed as inhibition of parasite growth incubated for 72 hrs by [3H]hypoxanthine incorporation based microbeta counting analysis; format: functional, organism-based; conditions: Dd2, Erythrocyte
[28] = tested on: Plasmodium falciparum; assay: Antiplasmodial activity against multidrug-resistant Plasmodium falciparum Dd2 harboring cyt b-I22L mutant infected in erythrocytes assessed as inhibition of parasite growth incubated for 72 hrs by [3H]hypoxanthine incorporation based microbeta counting analysis; format: functional, organism-based; conditions: Dd2, Erythrocyte
[29] = tested on: Plasmodium falciparum; assay: Antiplasmodial activity against multidrug-resistant Plasmodium falciparum NF54 infected in erythrocytes assessed as inhibition of parasite growth incubated for 72 hrs by [3H]hypoxanthine incorporation based microbeta counting analysis; format: functional, organism-based; conditions: NF54, Erythrocyte
[30] = tested on: Plasmodium falciparum; assay: Antiplasmodial activity against multidrug-resistant Plasmodium falciparum TM90-C2B infected in erythrocytes assessed as inhibition of parasite growth incubated for 72 hrs by [3H]hypoxanthine incorporation based microbeta counting analysis; format: functional, organism-based; conditions: Erythrocyte

T3 sequence (P08684 whole entry): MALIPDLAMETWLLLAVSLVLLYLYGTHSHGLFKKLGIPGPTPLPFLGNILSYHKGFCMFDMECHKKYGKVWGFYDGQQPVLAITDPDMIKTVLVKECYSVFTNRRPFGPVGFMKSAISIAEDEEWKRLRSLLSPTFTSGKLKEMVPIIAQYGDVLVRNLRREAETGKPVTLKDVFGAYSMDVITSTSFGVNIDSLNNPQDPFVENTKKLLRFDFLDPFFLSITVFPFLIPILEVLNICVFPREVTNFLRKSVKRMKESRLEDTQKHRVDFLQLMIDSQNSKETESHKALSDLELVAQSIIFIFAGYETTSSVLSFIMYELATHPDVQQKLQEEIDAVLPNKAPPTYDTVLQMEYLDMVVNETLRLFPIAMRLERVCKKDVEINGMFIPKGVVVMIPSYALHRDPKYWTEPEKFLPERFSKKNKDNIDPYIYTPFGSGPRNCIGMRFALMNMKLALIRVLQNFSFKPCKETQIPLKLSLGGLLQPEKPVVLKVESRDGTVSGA
T2 sequence (P11712 whole entry): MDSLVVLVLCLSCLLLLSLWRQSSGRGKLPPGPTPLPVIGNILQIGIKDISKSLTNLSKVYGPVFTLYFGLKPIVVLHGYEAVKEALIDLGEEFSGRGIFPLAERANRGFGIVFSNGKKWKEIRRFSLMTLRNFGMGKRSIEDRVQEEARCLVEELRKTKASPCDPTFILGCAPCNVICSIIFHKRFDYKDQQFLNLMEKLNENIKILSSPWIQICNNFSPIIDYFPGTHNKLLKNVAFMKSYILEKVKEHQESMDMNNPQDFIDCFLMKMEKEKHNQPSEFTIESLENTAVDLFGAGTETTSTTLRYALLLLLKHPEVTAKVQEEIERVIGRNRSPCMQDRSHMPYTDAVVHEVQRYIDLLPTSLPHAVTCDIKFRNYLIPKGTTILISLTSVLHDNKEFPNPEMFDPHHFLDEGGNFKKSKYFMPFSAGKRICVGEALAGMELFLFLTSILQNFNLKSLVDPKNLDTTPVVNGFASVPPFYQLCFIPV
Sequence of Voltage-gated inwardly rectifying potassium channel KCNH2 (Q12809 whole entry): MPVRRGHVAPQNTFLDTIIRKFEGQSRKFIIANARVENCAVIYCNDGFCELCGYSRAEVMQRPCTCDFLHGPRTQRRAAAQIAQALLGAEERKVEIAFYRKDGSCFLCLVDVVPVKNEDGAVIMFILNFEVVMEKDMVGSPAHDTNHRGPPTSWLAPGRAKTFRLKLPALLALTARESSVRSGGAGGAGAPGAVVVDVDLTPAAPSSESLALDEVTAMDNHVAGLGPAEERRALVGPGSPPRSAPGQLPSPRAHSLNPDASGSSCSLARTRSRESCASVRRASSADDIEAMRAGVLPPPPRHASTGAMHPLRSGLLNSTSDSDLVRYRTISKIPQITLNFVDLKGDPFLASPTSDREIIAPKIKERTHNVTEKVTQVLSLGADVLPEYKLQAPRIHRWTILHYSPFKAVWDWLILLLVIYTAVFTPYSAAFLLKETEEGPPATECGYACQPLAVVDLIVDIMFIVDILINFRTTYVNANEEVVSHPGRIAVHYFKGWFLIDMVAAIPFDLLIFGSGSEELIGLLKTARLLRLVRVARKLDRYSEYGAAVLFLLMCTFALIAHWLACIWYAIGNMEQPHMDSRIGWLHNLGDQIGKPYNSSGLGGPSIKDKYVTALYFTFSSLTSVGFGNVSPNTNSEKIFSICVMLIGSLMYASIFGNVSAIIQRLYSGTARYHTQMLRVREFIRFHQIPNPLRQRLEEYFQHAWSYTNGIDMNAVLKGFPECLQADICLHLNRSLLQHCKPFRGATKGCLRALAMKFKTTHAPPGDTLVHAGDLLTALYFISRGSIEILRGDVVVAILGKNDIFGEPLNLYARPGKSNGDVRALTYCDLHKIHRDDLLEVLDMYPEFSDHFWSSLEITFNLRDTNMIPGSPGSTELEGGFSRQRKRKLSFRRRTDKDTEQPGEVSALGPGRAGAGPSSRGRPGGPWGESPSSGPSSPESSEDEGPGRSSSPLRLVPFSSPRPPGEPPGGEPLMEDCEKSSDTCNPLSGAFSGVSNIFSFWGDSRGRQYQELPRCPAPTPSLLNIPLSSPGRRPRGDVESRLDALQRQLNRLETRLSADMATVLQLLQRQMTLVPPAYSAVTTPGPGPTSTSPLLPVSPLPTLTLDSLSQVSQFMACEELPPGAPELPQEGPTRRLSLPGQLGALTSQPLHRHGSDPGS
Sequence of CYP2C19 (P33261 whole entry): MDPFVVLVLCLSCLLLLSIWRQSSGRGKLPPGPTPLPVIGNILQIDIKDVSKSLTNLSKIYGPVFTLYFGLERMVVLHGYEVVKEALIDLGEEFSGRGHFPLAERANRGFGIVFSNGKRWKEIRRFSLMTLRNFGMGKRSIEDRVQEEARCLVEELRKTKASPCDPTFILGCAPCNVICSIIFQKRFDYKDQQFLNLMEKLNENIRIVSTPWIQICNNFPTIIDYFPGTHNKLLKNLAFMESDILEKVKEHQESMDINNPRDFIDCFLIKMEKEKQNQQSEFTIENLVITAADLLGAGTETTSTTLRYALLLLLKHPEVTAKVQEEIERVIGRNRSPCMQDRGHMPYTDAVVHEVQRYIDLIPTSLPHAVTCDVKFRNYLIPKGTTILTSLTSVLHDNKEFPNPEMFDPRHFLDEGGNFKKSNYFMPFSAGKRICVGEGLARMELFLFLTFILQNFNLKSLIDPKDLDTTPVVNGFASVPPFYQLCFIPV

Question: Which hepatocyte CLint at 1 µM [1] does the source give for `Cc1nn(C(C)(C)C)c2nc(C3CC3)cc(C(=O)N3CCOc4ccncc43)c12` here?
Answer: 26 µL/min/1e6 cells

Question: And the CC50 at 48 h [2]?
Answer: 4810 nM

Question: And the logD at 2 h, 7.5 µM [3]?
Answer: 4.1

Question: What about the microsomal CLint at 1 µM [4] of the same molecule?
Answer: 116 µL/min/mg

Question: And the efflux ratio [5]?
Answer: 1.4

Question: What about the pEC50 [6] of the same molecule?
Answer: 4.78

Question: And the inhibition at 1 µM [7]?
Answer: 18%

Question: And the inhibition at 10 µM [8]?
Answer: 17.4%

Question: And the inhibition at 1 µM [9]?
Answer: 12.8%

Question: And the inhibition at 10 µM [10]?
Answer: 57.5%

Question: What about the inhibition at 1 µM [11] of the same molecule?
Answer: 66.2%

Question: What about the inhibition at 10 µM [12] of the same molecule?
Answer: 90.5%

Question: What about the Activity [13] of the same molecule?
Answer: Active

Question: And the pEC50 ([14]; Dd2-B2, 72 h)?
Answer: 8.17

Question: And the EC90 ([14]; Dd2-B2, time 72 hrs)?
Answer: 12.3 nM

Question: What about the Activity [15] of the same molecule?
Answer: 28 nM

Question: What about the Activity [16] of the same molecule?
Answer: 28 nM

Question: What about the Ratio EC50 [17] of the same molecule?
Answer: 3

Question: And the Ratio EC50 [18]?
Answer: 5

Question: What about the Ratio [19] of the same molecule?
Answer: 5

Question: What about the Activity [20] of the same molecule?
Answer: 1.6 10^6No_unit

Question: And the pEC50 ([21]; Dd2-B2, 72 h)?
Answer: 7.43

Question: And the EC90 ([21]; Dd2-B2, time 72 hrs)?
Answer: 68.9 nM

Question: What about the pEC50 [22] of the same molecule?
Answer: 9.10

Question: And the “Ratio EC50” value [23]?
Answer: 3.4

Question: What about the pEC50 [24] of the same molecule?
Answer: 8.40

Question: And the pEC50 [25]?
Answer: 8.30

Question: And the pEC50 [26]?
Answer: 8.15

Question: And the pEC50 [27]?
Answer: 8.22

Question: What about the pEC50 [28] of the same molecule?
Answer: 8.22

Question: And the pEC50 [29]?
Answer: 8.52

Question: And the pEC50 [30]?
Answer: 8.15
